This is an account of results in patent publication US20250017252A1, “Fatty acids for boostering ketogenic diet” (N.V. Nutricia, priority 2022, published 2025).

Holding throughout (type): cell-based
For test [1], the system named is mouse liver cells (Hepa1-6 cell line). Kind of test: Ketone (β-hydroxybutyrate) production in mouse liver cells. The settings on record: for Effect of combining with OA on βHb production vs sum of individual effects: 1 μM to 10 μM + 100 μM OA; for βHb production when combined with oleic acid vs OA alone: 1 μM to 10 μM test nutrient + 100 μM OA; for βHb production when combined with fatty acid blend (K-one) vs blend alone: 1 μM to 10 μM test nutrient + 100 μM fatty acid blend; for Ketone production in the absence of a ketogenic fat blend: 5 μM each, alone or in combination; for βHb production, provided alone: test nutrient alone at 1 μM, 5 μM and 10 μM, no OA or fat blend, 6 hours; for Effect of combining with fatty acid blend on βHb production vs sum of individual effects: with 100 μM K-one fatty acid blend. How it is done:
An assay to measure ketone production in mouse liver cells (Hepa1-6 cell line) was used wherein cells were first grown to a monolayer (growth phase), then exposed to starvation to deplete cellular lipid stores and subsequently brought into a ketogenic phase wherein cells were cultured in presence of oleic acid or a ketogenic diet fat blend with or without the presence of one of C2 fatty acid, C4 fatty acid, C6 fatty acid, citric acid and nicotinamide riboside. The ketone body production was subsequently determined by measurement of beta-hydroxybutyrate in the cell culture medium according to the details set out below:
Starvation phase: At the end of the growth phase the cells formed a monolayer. The medium was exchanged for DMEM containing 1 mM glucose and antibiotics (1% penicillin & streptomycin) but no FBS. The medium was further supplemented with L-carnitine (a required co-factor for the uptake of fatty acids into the mitochondria, where fatty acids are turned into ketones). The cells were incubated in this medium for 24 hours. During this time, the cells were vastly deprived of glucose, lipids and hormones contained in FBS, forcing them to consume and empty their lipid stores. […] Moreover, the starvation phase is thought to induce specific metabolic changes that maximize the production of ketones.
Ketogenic phase: At the end of the starvation phase, the medium was exchanged for Krebs-Henseleit buffer (KHB) supplemented with the L-carnitine and the test nutrients (table 1, single fatty acids C2, C4, C6 and citrate, nicotinamide riboside in combination with oleic acid fatty acid blend).
The fatty acid blend has a similar fatty acid composition as the one used in a ketogenic diet (K-one). The content of every fatty acid in the blend is given as the molar ratio to Oleic acid (OA), whose molar content is set to 1. Dilutions of this blend were used to determine the dose response curve in FIGS. 1B and 1D. C2 and C4 are not included in the blend.
KHB is composed of salts and bicarbonate as a chemical buffer to maintain the osmotic pressure and acidity (pH) at physiological levels. Medium and long chain fatty acids are coupled to bovine serum albumin prior to the assay to make them soluble in KHB and allow their efficient uptake by the cells. The coupling is physiological since in humans, medium and long chain fatty acids are normally coupled to albumin for transport in the blood circulation. Short chain fatty acids (C2, C4) were not coupled to albumin in the assay as they are water-soluble and circulate freely in humans. The cells were incubated for 6 hours at 37° C. During this time they produce ketones from the test nutrients with little to no interference from other nutrients and secrete β-hydroxybutyrate (β) into the medium.
β-Hb measurements: At the end of the ketogenic phase, the whole medium was collected and dried by vacuum centrifugation for 20 hours at 21° C. The dry pellet was resuspended in a small volume of assay buffer to yield a 10-20-fold higher β-Hb concentration than in the medium. The samples were deproteinized using spin columns to measure the free unbound fraction of β-Hb. […] The Fluorescence was measured on a fluorescence microplate reader and is directly proportional to the β-Hb concentration in the sample within a range of 0.1 μM to 50 μM β-Hb.

Test [2] has as its system NAD+ depleted mouse liver cells (Hepa1-6 cells). The experiment in a line: NAD+ replenishment of NAD+ depleted mouse liver cells under ketogenic diet-like conditions. The text has this:
A ketogenic diet treatment leads to great consumption of NAD+ and other metabolically relevant NAD+ derivatives such as NADP+ creating a state of NAD+ exhaustion. Therefore, it was hypothesized that nicotinamide riboside (NR) may replenish NAD+ and thus sustains ketone production more effectively in liver cells than other NAD+ precursors including nicotinamide (NAM), nicotinic acid (NA), Niacin (defined as the combination of NA and NAM) or the amino acid tryptophan (Trp). While NA and NAM have been commonly referred to as vitamin B3, NR is a recently discovered and naturally occurring vitamin B3 member. An assay was developed to measure NAD+ replenishment of NAD+ depleted mouse liver cells (Hepa1-6 cells) by NAD+ precursors under ketogenic diet-like conditions. In this assay, mouse liver cells were starved of glucose and depleted of NAD+ through incubation in a very low glucose (1 mM) medium free of vitamin B3, tryptophan (Trp) and FBS and supplemented with 10 nM of an NAD+ depleting drug called FK866. Thereafter, the cells were fed with NR or NAM or Niacin (combination of NAM and NA in a 1:1 molar ratio) or Trp to replenish NAD+. At the end of the supplementation phase, the cells were scraped and extracted using the NAD+ extraction buffer of the EnzyChrom™ NAD/NADH Assay Kit from BioAssay Systems. The NAD+ content of the cells was determined with the same kit following the manufacturer's manual. The NAD+ measurement is based on a lactate dehydrogenase reaction, in which NAD+ is reduced to NADH, which in turn reduces a formazan (MTT) reagent. The intensity of the reduced product colour, measured at 565 nm, is proportional to the NAD+ concentration in the sample. This assay is highly specific for NAD+ and has minimal interference (<1%) by NADP+ or NADPH.

Test [3] has as its system NAD+ depleted mouse liver cells. Kind of test: Ketone production of NAD+ depleted liver cells after NR replenishment. The conditions noted are these: NR 10 μM, 150 μM and 1000 μM. The protocol: To measure the impact of replenishing NAD+ in liver cells with NR on ketone production, mouse liver cells were nutrient-deprived in medium containing low (1 mM) glucose, no fetal bovine serum, and no NAD+ precursors in the form of vitamin B3 (Niacin, NA, NAM) or Trp, but supplemented with L-carnitine.
Concomitantly the cells were treated with FK866. These conditions created ketogenic diet like nutrient conditions and depleted the cells of NAD+ After 18 hours of incubation, FK866 was removed from the medium and a concentration range of NR was added for the replenishment of NAD+. After 24 hours, the cells were switched to Krebs-Henseleit buffer (KHB) containing L-carnitine and a concentration range (1 μM to 100 μM) of oleic acid, a long chain fatty acid, for 6 hours to induce and measure the production and secretion of b-hydroxybutyrate (βHB) into the medium.

Entries after “also recorded” stand apart in the source; their conditions may differ.

As for `CCCCCCCC/C=C\CCCCCCCC(=O)O` [OA, oleic acid, reference compound], in test [1] (dose-response curve, substrate alone), the “Concentration at which top-level production of ketones is achieved” value was found to be 100 µM.

With `CCCC(=O)O` [C4, butyric acid], in test [1], the “Effect of combining with OA on βHb production vs sum of individual effects” value is “more than additive”, the “βHb production when combined with oleic acid vs OA alone” value (“βHb production … vs OA alone” below) is listed as “more βHb than providing 100 μM OA alone”, the “βHb production when combined with fatty acid blend (K-one) vs blend alone” value (“βHb production when combined … vs blend alone” below) is given as “more βHb than providing the 100 μM fatty acid blend alone” and the “Ketone production in the absence of a ketogenic fat blend” value was “hardly any ketones”. For the same molecule, in test [1], the “βHb production, provided alone” value is reported as “hardly yielded any βHb; also recorded: no βHb” and the “Effect of combining with fatty acid blend on βHb production vs sum of individual effects” value was “more than additive”. Further, the “Production of ketones from fatty acid blend concentration range” value in test [1] (fixed 10 μM C4 + 1 μM to 100 μM fatty acid blend vs blend without C4) is “increasingly enhanced the production of ketones”.

Turning to `O=C(O)CC(O)(CC(=O)O)C(=O)O` [citrate, citric acid], in test [1] (citrate 200 μM to 1000 μM + 100 μM K-one fat blend), the “Increase of ketone production from the fat blend” value was 10-20%. The “Ketone production, citrate alone” value in test [1] (citrate alone, no fat blend) is “no ketones”. Further, the “Effect of combining with fatty acid blend on βHb production vs sum of individual effects” value in test [1] is on record as “clearly greater than the sum”.

Turning to `CC(=O)O` [C2, ethanoic acid], in test [1], the “Effect of combining with OA on βHb production vs sum of individual effects” value is on record as “more than additive”; the “βHb production … vs OA alone” value was “more βHb than 100 μM OA alone”; the “βHb production when combined … vs blend alone” value was “slightly greater production of βHb”; the “βHb production, provided alone” value is “virtually no bHB; also recorded: no βHb”. Also, in test [1], the “Effect of combining with fatty acid blend on βHb production vs sum of individual effects” value is reported as “more than additive”.

With `NC(=O)c1ccc[n+]([C@@H]2O[C@H](CO)[C@@H](O)[C@H]2O)c1` [NR, nicotinamide riboside], in test [2] (NAD+ depleted cells, within 24 hours of treatment), the “NAD+ content replenishment” value is “dose-dependently replenishes NAD+ content to and above this baseline”. Moreover, in test [2] (high concentrations of 1 mM), the “Increase of NAD+ content vs equimolar NAM or Niacin” value is “significantly greater extent than equimolar amounts of NAM or Niacin”. The “Increase of NAD+ content vs equimolar Niacin” value in test [2] (lower concentrations below 150 μM) was “greater extent than equimolar amounts of Niacin”. The “Top-level production of ketones” value in test [3] (NAD+ depleted cells, oleic acid 1 μM to 100 μM, 6 hours) is recorded as “increased the top-level production of ketones”. Also, the “NAD+ content” value in test [3] (ketogenic diet like nutrient conditions) is recorded as “increased”.

Regarding `CCCCCC(=O)O` [C6, caproic acid], in test [1], the “βHb production … vs OA alone” value is listed as “potentiates the production of ketones”, the “βHb production when combined … vs blend alone” value is “potentiates the production of ketones”, the “Ketone production in the absence of a ketogenic fat blend” value is on record as “hardly any ketones” and the “Effect of combining with fatty acid blend on βHb production vs sum of individual effects” value is recorded as “more than additive”. Also, the “Concentration above which the fatty acid starts to be turned into βHb (substrate)” value in test [1] (dose-response curve 1 μM to 100 μM, alone) is listed as “above 10 μM”.

For `O=C(/C=C/c1cccnc1)NCCCCC1CCN(C(=O)c2ccccc2)CC1` [FK866, reference compound], the “Depletion of NAD+ relative to baseline NAD+ content of untreated liver cells” value in test [2] (10 nM FK866) is given as roughly 70%.
